Test results from ChEMBL document CHEMBL4834422, “New Tyramine- and Aporphine-Type Alkamides with NO Release Inhibitory Activities from Piper puberulum” (J Nat Prod, 2021).

Experiments:
[1] = test system: BV-2; assay: Antineuroinflammatory activity against mouse BV2 cells assessed as inhibition of LPS-induced NO production incubated for 20 hrs by Griess assay; assay type: functional, cell-based; conditions: BV-2, 20 h
[2] = test system: BV-2; assay: Cytotoxicity against mouse BV2 cells assessed as reduction in cell viability at 1 to 25 uM after 24 hrs by MTT assay; assay type: cell-based; conditions: bv-2, 24 h, dose 1-25 µM

SMILES | IC50 [1] [µM] | Activity [2]
COc1cc2c3c(cc4ccccc4c3c1O)NC2=O [PIPEROLACTAM A] | > 50 | 
NC(=O)c1cn(CCc2ccc(O)cc2)c(=O)c2c(O)ccc(O)c12 | > 50 | 
COc1c(O)cc2c3c1-c1ccccc1[C@H](O)[C@H]3N(C(C)=O)CC2 | > 50 | 
COc1c2c3c(c(OC)c1OC)-c1ccccc1[C@H](O)[C@H]3N(C(C)=O)CC2 | > 50 | 
COc1cc(/C=C\C(=O)NCCc2ccc(O)cc2)cc(OC)c1O | > 50 | 
O=C1c2ccccc2-c2c3c(cc4ccnc1c24)OCO3 [LIRIODENINE] | 5 | Non-Toxic
COc1cc(/C=C/C(=O)NCCc2ccc(O)cc2)cc(OC)c1O [TRANS-N-SINAPOYLTYRAMINE] | > 50 | 
COc1cc2c3c(c1OC)-c1ccccc1[C@H](O)[C@H]3N(C(C)=O)CC2 | > 50 | 
COc1cc([C@H]2c3c(cc(OC)c(O)c3OC)C=C(C(=O)NCCc3ccc(O)cc3)[C@@H]2C(=O)NCCc2ccc(O)cc2)cc(OC)c1O | > 50 | 
COc1cccc(/C=C/C(=O)N2CCCC2)c1 | > 50 | 
COc1ccc(CCNC(=O)c2cc(OC)ccc2O)cc1 | > 50 | 
COc1c(O)c(OC)c2c3c1CCN(C(C)=O)[C@@H]3[C@@H](O)c1ccccc1-2 | > 50 | 
COc1cc(/C=C/C(=O)NCCc2ccc(O)c(OC)c2)ccc1O | > 50 | 
COc1cc2c3c(cc4ccccc4c3c1OC)NC2=O [CEPHARANONE B] | > 50 | 
COc1ccc(OC)c(C(=O)NCCc2ccc(O)c(OC)c2)c1 | > 50 | 
COc1ccc(O)c(C(=O)NCCc2ccc(O)cc2)c1 | > 50 | 

Continued, in another order:

IC50 [1] [µM] | SMILES | Activity [2]
22 | COc1cc(/C=C\C(=O)NCCc2ccc(O)cc2)ccc1O | Non-Toxic
45 | CCCCC/C=C/C=C/C(=O)NCC(C)C [PELLITORIN] | Non-Toxic
2.2 | O=C(/C=C/c1ccc(O)cc1)NCCc1ccc(O)cc1 [N-P-COUMAROYL TYRAMINE] | Non-Toxic
1.4 | COc1ccc(CCNC(=O)c2c(O)ccc(O)c2OC)cc1 | Non-Toxic
18 | COc1cc(/C=C/C(=O)NCCc2ccc(O)cc2)ccc1O [N-TRANS-FERULOYL TYRAMINE] | Non-Toxic
9 | CC(=O)N1CCc2cc3c(c4c2[C@H]1[C@@H](O)c1ccccc1-4)OCO3 | Non-Toxic
6.8 | O=CN1CCc2cc3c(c4c2[C@H]1[C@@H](O)c1ccccc1-4)OCO3 | Non-Toxic
16 | COc1c2c3c(c4c1OCO4)-c1ccccc1[C@H](O)[C@H]3N(C(C)=O)CC2 | Non-Toxic
37 | COc1cc2c3c(cc4ccccc4c3c1OC)NC(=O)C2=O [NORCEPHARADIONE] | Non-Toxic
15 | CN(C)c1ccc(O)c2c1C[C@H]1C[C@H]3[C@H](N(C)C)C(O)=C(C(N)=O)C(=O)[C@@]3(O)C(O)=C1C2=O [MINOCYCLINE] | 
26 | COc1ccc(O)c(C(=O)NCCc2ccc(O)c(OC)c2)c1 | Non-Toxic
7 | COc1ccc(CCNC(=O)c2cc(O)ccc2O)cc1 | Non-Toxic
12 | COc1c(OC)c(OC)c2c3c(cc4ccccc42)NC(=O)c13 | Non-Toxic
21 | O=C(NCCc1ccc(O)cc1)c1ccc(O)c(O)c1 | Non-Toxic
